Several values for one entry are separate records, joined by “and”; a condition that tells them apart may be missing. Identical values can stand only once. Entries after “also recorded” stand apart in the source; their conditions may differ. Like-named read-outs stand apart in the source and are kept apart here.
Columns and labels:
[1] = tested on: Toxoplasma gondii tachyzoites of RH strain; assay: Plaque assay (7 days) in NHDF monolayers infected with T. gondii; assay type: cell-based; settings: 7 days of treatment, two independent experiments
Protocol: After NHDF reached confluency, each well was replaced with fresh medium containing one compound at a concentration of 1 µM, and then infected with 1000 newly egressed tachyzoites from RH strain [29]. Screening at 1 μM is recommended by MMV. As a control, infected cells were incubated with complete medium and 0.01% DMSO [29]. The plates were then kept in an incubator at 37 °C in a humid atmosphere with 5% CO2 for seven days. After this time, cultures were fixed with 70% ethanol and stained with crystal violet to observe the plates.
For that, 12-well plates containing a monolayer of NHDF were infected with 600 tachyzoites of the RH strain of T. gondii and treated with different concentrations for seven days. IC50s of compounds were calculated using GraphPad Prism 8.0 software.
Data were analyzed using GraphPad Prim 8.0 software. IC50 and CC50 calculations were performed by fitting the values of proliferation/viability in percentage to a non-linear curve followed by dose–response inhibition analysis through log(inhibitor) vs. normalized response.

[2] = tested on: Toxoplasma gondii tachyzoites of RH strain; assay: Forty-eight-hour antiproliferative assay; assay type: cell-based; settings: 48 h; for inhibition at 0.25 µM / inhibition at 1 µM: read-out: Inhibition of parasite proliferation
Protocol: NDHF cell monolayers were plated in a 24-well tissue plate containing coverslips, and after confluency was reached, cells were infected with a ratio of 5:1 parasite/host cells with freshly egressed RH strain tachyzoites for two hours. Then, cells were washed twice with phosphate-buffered saline, pH 7.4 (PBS), to remove non-invaded parasites and incubated with a complete medium for two hours more. After this time, infected cells were treated for 48 h with different concentrations of selected compounds, based on the IC50 obtained through plaque assay. At the end of the experiment, the cells were washed with PBS, stained with Bouin for 10 min, washed with 70% alcohol, and stained with solutions 2 and 3 of the Fast Panoptic kit for 60 and 10 s, respectively. Two hundred infected cells were quantified per slide using the 100× objective of a Leica DM500 optical microscope, stratifying the number of infected and non-infected cells and the amount of tachyzoite in each infected cell. The proliferation index is the ratio of the product of the total amount of tachyzoites and the percentage of infected cells by the total number of cells.

[3] = tested on: NHDF cells; assay: Cytotoxicity assay (MTS, 7 days); assay type: cell-based, Human; settings: for CC50: MTS, read-out: Cytotoxicity against NHDF (7 Days) CC50
Protocol: (§1) For that, 96-well tissue plates containing NHDF cells were treated with different concentrations of compounds up to 10 µM for seven days. Control cells were incubated with 0.5% DMSO. At the end of the treatment, cell viability was then analyzed through the colorimetric method of MTS (Promega, Madison, WI, USA). […] Data were analyzed using GraphPad Prim 8.0 software. IC50 and CC50 calculations were performed by fitting the values of proliferation/viability in percentage to a non-linear curve followed by dose–response inhibition analysis through log(inhibitor) vs. normalized response.

[4] = Cytotoxicity assay (MTS, 7 days); assay type: cell-based, Human; settings: human, NHDF cells, MTS, read-out: Cytotoxicity against NHDF (7 Days) CC50
Protocol: as §1

[5] = tested on: T. gondii tachyzoites (apicoplast); assay: Immunofluorescence assay of apicoplast loss (anti-CPN60); assay type: cell-based, Toxoplasma gondii; settings: 1 µM, 24 h
Protocol: Anti-CPN60 (kindly provided by Dr. Boris […], University of Georgia, USA) was used to label the apicoplast luminal protein CPN60 at a dilution of 1:2000. DAPI (5 μg/mL; Sigma-Aldrich) was used to label the DNA. After labeling, the coverslips were mounted onto slides using Prolong gold (Life Technologies, Eugene, OR, USA), and samples were examined on an Invitrogen EVOS fluorescence microscope.

[6] = tested on: T. gondii tachyzoites; assay: Ultrastructural analysis through transmission electron microscopy; assay type: cell-based, Toxoplasma gondii; settings: 48 h
Protocol: T-25 cm^2 flasks for cell culture with confluent monolayers of NHDF were infected with freshly egressed tachyzoite in a ratio of 10:1 parasite per cell for 2 h of interaction. The flasks were washed and fresh RPMI was added for another two hours. After this, the compounds were added and infected cells were treated for 48 h. The sample fixation and processing for microscopy were performed as previously described.

[7] = tested on: Toxoplasma gondii tachyzoites of RH strain; assay: Post-treatment recovery (washout) assay; assay type: cell-based; settings: 3 days of treatment, 7 days recovery without drug; 0.001 to 1 µM tested
Protocol: NHDF monolayers in 12-well plates were infected with 5000 newly egressed tachyzoites from RH strain and then treated for 3 days with drug concentrations of 0.001 to 1 µM. After treatment, the medium with drugs was removed, and the cells were washed twice and incubated with a fresh medium without drugs for an additional 7 days to allow the remaining parasites (if still viable after treatment) to grow. The plates were then kept in an incubator at 37 °C in a humid atmosphere with 5% CO2 throughout the treatment.

[8] = tested on: T. gondii Me49 strain; settings: read-out: IC50 against T. gondii Me49 strain; cited from earlier work
[9] = tested on: T. gondii RH strain; settings: read-out: IC50 against T. gondii RH strain; cited from earlier work
[10] = tested on: Balamuthia Mandrillaris; set-up: method as in PMID 32560115; settings: read-out: IC50 against Balamuthia Mandrillaris; cited from earlier work
[11] = concentrations up to 10 µM, two independent experiments
[12] = ND = 100% viability up to 10 µM

Row | SMILES | IC50 ([1]; Toxoplasma gondii, NHDF, 168 h) | SI (Selectivity Index, CC50 NHDF cells/IC50 T. gondii) [3] | CC50 at 7 days [4, 11] | IC50 [1] | CC50 [3, 11] | other results
1 | CCCCC(CC)CNC(=N)NC(=N)NCCCCCCNC(=N)NC(=N)NCC(CC)CCCC (stereo not shown) [Alexidine] | 272 ± 38.4 nM | 6 | 1630 nM |  |  | inhibition at 0.25 µM ([2]; Toxoplasma gondii, 0.25 µM): ~60%
2 | Cc1cc(C2CCCCC2)n(O)c(=O)c1 [Ciclopirox] | 497 ± 18.1 nM | 8 | 4000 nM |  |  | 
3 | CCC[C@@H]1C[C@@H](C(=O)N[C@@H]([C@H]2O[C@H](SC)[C@H](O)[C@@H](O)[C@H]2O)[C@H](C)Cl)N(C)C1 [Clindamycin] |  |  |  |  |  | Frequency of vacuoles (4 or 8 parasites) with at least one parasite presenting apicoplast loss [5]: higher than 30%
4 | COc1cc(NS(=O)(=O)c2ccc(C)cc2)c2ncccc2c1 [DNDI1417411] |  |  |  | 485 ± 43.8 nM | 14500 nM | Inhibition of parasite proliferation ([2]; 1 µM): more than 60%
5 | CC[C@H]1OC(=O)[C@H](C)[C@@H](O[C@H]2C[C@@](C)(OC)[C@@H](O)[C@H](C)O2)[C@H](C)[C@@H](O[C@@H]2O[C@H](C)C[C@H](N(C)C)[C@H]2O)[C@](C)(O)C[C@@H](C)C(=O)[C@H](C)[C@@H](O)[C@]1(C)O [Erythromycin] | ≤ 200 nM | 91 | 11900 nM | 131 ± 15.8 nM |  | 
6 | CC1=C(/C=C/C(C)=C/C=C/C(C)=C/C(=O)Nc2ccc(O)cc2)C(C)(C)CCC1 [Fenretinide] | 918 ± 29.1 nM | 29 | 26700 nM |  |  | 
7 | Oc1c(C(Nc2nc3ccccc3s2)c2ccc(OC(F)F)cc2)ccc2cccnc12 (stereo not shown) [MMV019724] |  |  |  | ≤ 200 nM and 109 nM | 2500 nM | Ultrastructural alterations on tachyzoites (TEM) ([6]; 0.25 µM): affected the parasite cell division process; also recorded: induced a lytic effect in the parasite; Inhibition of parasite proliferation ([2]; 0.25 µM): more than 80%; Inhibition of parasite proliferation ([2]; 1 µM): 99%
8 | Oc1cccc(C(Nc2nccs2)c2ccc3cccnc3c2O)c1 (stereo not shown) [MMV642550] |  |  |  | 320 ± 17 nM | 6730 nM | Ultrastructural alterations on tachyzoites (TEM) ([6]; 1 µM): affected the Golgi complex (GC) (Figure 4E) and induced extensive vacuolization inside the parasite body; Inhibition of T. gondii proliferation ([2]; 0.5 µM): around 75%
9 | O=S(=O)(Nc1cccc2cccnc12)c1ccccc1 [MMV1578890] |  |  |  | 1100 ± 0.1 nM | 10300 nM | 
10 | CCc1nc(N)nc(N)c1C#CC(C)c1cc(OC)cc(-c2ccncc2)c1 (stereo not shown) [MMV1580844] |  |  |  |  | 11200 nM | Ultrastructural alterations on tachyzoites (TEM) ([6]; 3 nM): caused parasite lysis; also recorded: disrupted the parasite division process; Concentrations at which monolayer lysis and plaque areas were seen after washout [7]: 0.001 to 0.01 µM; Inhibition of tachyzoite proliferation ([2]; 7 nM): more than 90%; Inhibition of T. gondii proliferation ([2]; concentrations close to 2 nM): approximately 50%
11 | Fc1ccc(-c2nc(-c3c[nH]c4ccc(Br)cc34)[nH]c2-c2ccc(F)cc2)cc1 [MMV1593537] |  |  |  | 940 ± 38.6 nM | 5660 nM | 
12 | Nc1nc(Nc2ccc3nc(-c4ccc(F)cc4)cc(N)c3c2)cc(-c2ccccc2)n1 [MMV1593541] |  |  |  |  | 2540 nM | Ultrastructural alterations on tachyzoites (TEM) ([6]; 0.5 µM): induced the formation of extensive cytoplasm vacuolization; Inhibition of T. gondii proliferation ([2]; 125 nM): more than 50%; Inhibition of parasite proliferation ([2]; 0.25 µM): around 60%
13 | Cn1cc(NC(=O)c2cc(NC(=O)c3ccc(/C=C/c4cnc5ccccc5c4)cc3)cn2C)cc1C(=O)NCCN1CCOCC1 [MMV1634391] |  |  |  |  |  | Frequency of vacuoles (4 or 8 parasites) with at least one parasite presenting apicoplast loss [5]: higher than 30%; CC50 [3, 12]: > 10000 nM
14 | Cc1nc2ccc(Oc3ccccc3)cc2c2c1CCN2CCc1ccccc1 [MMV1634399] |  |  |  | 920.3 ± 0.1 nM | 24100 nM | 
15 | COc1ccc2sc3c(c2c1)NC(C)CNC3=O (stereo not shown) [MMV1782115] |  |  |  | ≤ 200 nM and 161 nM | 9430 nM | Inhibition of parasite proliferation ([2]; 1 µM): more than 60%
16 | CCc1nc(N)nc(N)c1-c1ccc(Cl)cc1 [PYR, pyrimethamine] |  |  |  |  |  | Concentration that abolished parasite proliferation recovery (no plaques) [7]: > 1 µM; Concentrations at which monolayer lysis and plaque areas were seen after washout [7]: all concentrations
17 | OCCC#Cc1nc(-c2ccc(F)cc2)c(-c2ccncc2)n1CCCc1ccccc1 [RWJ-67657] | 412 ± 21.7 nM | 31 | 12600 nM |  |  | Ultrastructural alterations on tachyzoites (TEM) ([6]; 1 µM): induced an extensive vacuolization (asterisks) in T. gondii and myelin-like bodies; IC50 [8]: 800 nM; Inhibition of parasite proliferation ([2]; 1 µM): 59.5%; inhibition at 1 µM ([2]; Toxoplasma gondii, 1 µM): > 60%; IC50 [9]: 5000 nM
18 | C=C[C@]1(C)C[C@@H](OC(=O)CS[C@@H]2C[C@H]3CC[C@@H](C2)N3C)[C@]2(C)[C@H](C)CC[C@]3(CCC(=O)[C@H]32)[C@@H](C)[C@@H]1O [Retapamulin] |  | 270 | 9980 nM | < 100 nM |  | Frequency of vacuoles (4 or 8 parasites) with at least one parasite presenting apicoplast loss [5]: higher than 30%; Inhibition of parasite proliferation ([2]; 1 µM): more than 50%; inhibition at 1 µM ([2]; Toxoplasma gondii, 1 µM): > 60%
19 | COc1cc(C)c2c(Oc3cccc(C(F)(F)F)c3)c(OC)cc(NC(C)CCCN)c2n1 (stereo not shown) [Tafenoquine] | 896.9 ± 0.1 nM | 18 | 16300 nM |  |  | 
20 | NC(=S)N/N=C/c1ncccc1N [Triapine] | 717.7 ± 0.1 nM | 4 | 2800 nM |  |  | inhibition at 1 µM ([2]; Toxoplasma gondii, 1 µM): > 60%
21 | COc1cc(NCc2ccc3nc(N)nc(N)c3c2C)cc(OC)c1OC [Trimetrexate] |  | 3046 | 11900 nM |  |  | Concentrations at which monolayer lysis and plaque areas were seen after washout [7]: 0.001 to 0.1 µM; inhibition at 0.015 µM ([2]; Toxoplasma gondii, 15 nM, read-out: Inhibition of tachyzoite proliferation): > 90%; Inhibition of T. gondii proliferation ([2]; concentrations close to 2 nM): approximately 50%
22 | CN1CCN(Cc2ccc(-c3cnc4[nH]cc(-c5ccc6[nH]ccc6c5)c4c3)cc2)CC1 [URMC-099-C] |  |  |  |  |  | IC50 [10]: 5350 nM; Ultrastructural alterations on tachyzoites (TEM) ([6]; 1 µM): induced an extensive vacuolization (asterisks) in T. gondii and myelin-like bodies; inhibition at 1 µM ([2]; Toxoplasma gondii, 1 µM): > 60%; CC50 at 7 days [4, 12]: > 10000 nM
23 | O=C(/C=C\n1cnc(-c2cc(C(F)(F)F)cc(C(F)(F)F)c2)n1)NNc1ccccn1 [Verdinexor] |  |  | 2860 nM | 70 ± 24.4 nM |  | IC50 ([1]; listed as verdinexor): ≤ 200 nM; Ultrastructural alterations on tachyzoites (TEM) ([6]; 0.25 µM): caused a drastic effect on the division of the parasite; also recorded: caused extensive vacuolization; also recorded: induced mitochondrial alterations; inhibition at 0.25 µM ([2]; Toxoplasma gondii, 0.25 µM): > 80%; inhibition at 1 µM ([2]; Toxoplasma gondii, 1 µM): 99%
